Test results as given in the NIST ThermoML archive (doi:10.1021/je060271a).
Numbers after ± are expanded uncertainties.

Settings: Liquid, Vibrating tube method

Q: Which results are given for `CCCCCCCC(=O)OCC(COC(=O)CCCCCCC)(COC(=O)CCCCCCC)COC(=O)CCCCCCC` [pentaerythritol tetraoctanoate]?
A: mass density (323.15 K, 31267 kPa): 960.2 ± 1.2 kg/m3; mass density (323.15 K, 31296 kPa): 960.3 ± 1.2 kg/m3; mass density (323.15 K, 31325 kPa): 960.2 ± 1.2 kg/m3; mass density (323.15 K, 31360 kPa): 960.3 ± 1.2 kg/m3; mass density (323.15 K, 31389 kPa): 960.2 ± 1.2 kg/m3; mass density (323.15 K, 31418 kPa): 960.1 ± 1.2 kg/m3; mass density (323.15 K, 31452 kPa): 960.2 ± 1.2 kg/m3; mass density (323.15 K, 31481 kPa): 960.3 ± 1.2 kg/m3; mass density (323.15 K, 31510 kPa): 960.4 ± 1.2 kg/m3; mass density (323.15 K, 31540 kPa): 960.4 ± 1.2 kg/m3; mass density (323.15 K, 31575 kPa): 960.3 ± 1.2 kg/m3; mass density (323.15 K, 31604 kPa): 960.4 ± 1.2 kg/m3; mass density (323.15 K, 31640 kPa): 960.3 ± 1.2 kg/m3; mass density (323.15 K, 31669 kPa): 960.4 ± 1.2 kg/m3; mass density (323.15 K, 31699 kPa): 960.3 ± 1.2 kg/m3; mass density (323.15 K, 31731 kPa): 960.4 ± 1.2 kg/m3; mass density (323.15 K, 31761 kPa): 960.4 ± 1.2 kg/m3; mass density (323.15 K, 31785 kPa): 960.4 ± 1.2 kg/m3; mass density (323.15 K, 31827 kPa): 960.5 ± 1.2 kg/m3; mass density (323.15 K, 31856 kPa): 960.5 ± 1.2 kg/m3; mass density (323.15 K, 31892 kPa): 960.5 ± 1.2 kg/m3; mass density (323.15 K, 31922 kPa): 960.5 ± 1.2 kg/m3; mass density (323.15 K, 31952 kPa): 960.6 ± 1.2 kg/m3; mass density (323.15 K, 31987 kPa): 960.6 ± 1.2 kg/m3; mass density (323.15 K, 32018 kPa): 960.7 ± 1.2 kg/m3; mass density (323.15 K, 32048 kPa): 960.5 ± 1.2 kg/m3; mass density (323.15 K, 32084 kPa): 960.6 ± 1.2 kg/m3; mass density (323.15 K, 32115 kPa): 960.6 ± 1.2 kg/m3; mass density (323.15 K, 32147 kPa): 960.7 ± 1.2 kg/m3; mass density (323.15 K, 32178 kPa): 960.7 ± 1.2 kg/m3; mass density (323.15 K, 32208 kPa): 960.8 ± 1.2 kg/m3; mass density (323.15 K, 32244 kPa): 960.7 ± 1.2 kg/m3; mass density (323.15 K, 32275 kPa): 960.8 ± 1.2 kg/m3; mass density (323.15 K, 32305 kPa): 960.6 ± 1.2 kg/m3; mass density (323.15 K, 32343 kPa): 960.8 ± 1.2 kg/m3; mass density (323.15 K, 32374 kPa): 960.8 ± 1.2 kg/m3; mass density (323.15 K, 32404 kPa): 960.6 ± 1.2 kg/m3; mass density (323.15 K, 32442 kPa): 960.8 ± 1.2 kg/m3; mass density (323.15 K, 32467 kPa): 960.8 ± 1.2 kg/m3; mass density (323.15 K, 32504 kPa): 961 ± 1.2 kg/m3; mass density (323.15 K, 32542 kPa): 960.9 ± 1.2 kg/m3; mass density (323.15 K, 32574 kPa): 960.9 ± 1.2 kg/m3; mass density (323.15 K, 32605 kPa): 961 ± 1.2 kg/m3; mass density (323.15 K, 32642 kPa): 960.9 ± 1.2 kg/m3; mass density (323.15 K, 32706 kPa): 961 ± 1.2 kg/m3; mass density (323.15 K, 32744 kPa): 961.1 ± 1.2 kg/m3; mass density (323.15 K, 32776 kPa): 961.1 ± 1.2 kg/m3; mass density (323.15 K, 32838 kPa): 961.1 ± 1.2 kg/m3; mass density (323.15 K, 32877 kPa): 961.1 ± 1.2 kg/m3; mass density (323.15 K, 32909 kPa): 961 ± 1.2 kg/m3; mass density (323.15 K, 32941 kPa): 961.1 ± 1.2 kg/m3; mass density (323.15 K, 32980 kPa): 961 ± 1.2 kg/m3; mass density (323.15 K, 33012 kPa): 961.2 ± 1.2 kg/m3; mass density (323.15 K, 33050 kPa): 961.1 ± 1.2 kg/m3; mass density (323.15 K, 33083 kPa): 961.2 ± 1.2 kg/m3; mass density (323.15 K, 33115 kPa): 961.2 ± 1.2 kg/m3; mass density (323.15 K, 33147 kPa): 961.2 ± 1.2 kg/m3; mass density (323.15 K, 33186 kPa): 961.2 ± 1.2 kg/m3; mass density (323.15 K, 33219 kPa): 961.3 ± 1.2 kg/m3; mass density (323.15 K, 33258 kPa): 961.2 ± 1.2 kg/m3; mass density (323.15 K, 33291 kPa): 961.3 ± 1.2 kg/m3; mass density (323.15 K, 33324 kPa): 961.3 ± 1.2 kg/m3; mass density (323.15 K, 33363 kPa): 961.4 ± 1.2 kg/m3; mass density (323.15 K, 33396 kPa): 961.5 ± 1.2 kg/m3; mass density (323.15 K, 33429 kPa): 961.3 ± 1.2 kg/m3; mass density (323.15 K, 33470 kPa): 961.4 ± 1.2 kg/m3; mass density (323.15 K, 33503 kPa): 961.3 ± 1.2 kg/m3; mass density (323.15 K, 33536 kPa): 961.6 ± 1.2 kg/m3; mass density (323.15 K, 33576 kPa): 961.4 ± 1.2 kg/m3; mass density (323.15 K, 33610 kPa): 961.5 ± 1.2 kg/m3; mass density (323.15 K, 33644 kPa): 961.5 ± 1.2 kg/m3; mass density (323.15 K, 33685 kPa): 961.5 ± 1.2 kg/m3; mass density (323.15 K, 33720 kPa): 961.6 ± 1.2 kg/m3; mass density (323.15 K, 33755 kPa): 961.5 ± 1.2 kg/m3; mass density (323.15 K, 33797 kPa): 961.6 ± 1.2 kg/m3; mass density (323.15 K, 33833 kPa): 961.5 ± 1.2 kg/m3; mass density (323.15 K, 33870 kPa): 961.6 ± 1.2 kg/m3; mass density (323.15 K, 33916 kPa): 961.7 ± 1.2 kg/m3; mass density (323.15 K, 33952 kPa): 961.7 ± 1.2 kg/m3; mass density (323.15 K, 33982 kPa): 961.7 ± 1.2 kg/m3; mass density (323.15 K, 34010 kPa): 961.8 ± 1.2 kg/m3; mass density (323.15 K, 34034 kPa): 961.7 ± 1.2 kg/m3; mass density (323.15 K, 34058 kPa): 961.7 ± 1.2 kg/m3; mass density (323.15 K, 34086 kPa): 961.7 ± 1.2 kg/m3; mass density (323.15 K, 34110 kPa): 961.8 ± 1.2 kg/m3; mass density (323.15 K, 34134 kPa): 961.8 ± 1.2 kg/m3; mass density (323.15 K, 34159 kPa): 961.8 ± 1.2 kg/m3; mass density (323.15 K, 34188 kPa): 961.9 ± 1.2 kg/m3; mass density (323.15 K, 34213 kPa): 961.9 ± 1.2 kg/m3; mass density (323.15 K, 34242 kPa): 961.8 ± 1.2 kg/m3; mass density (323.15 K, 34268 kPa): 961.9 ± 1.2 kg/m3; mass density (323.15 K, 34294 kPa): 961.8 ± 1.2 kg/m3; mass density (323.15 K, 34321 kPa): 962.1 ± 1.2 kg/m3; mass density (323.15 K, 34354 kPa): 962 ± 1.2 kg/m3; mass density (323.15 K, 34382 kPa): 961.9 ± 1.2 kg/m3; mass density (323.15 K, 34411 kPa): 962 ± 1.2 kg/m3; mass density (323.15 K, 34448 kPa): 962.1 ± 1.2 kg/m3; mass density (323.15 K, 34472 kPa): 961.9 ± 1.2 kg/m3; mass density (323.15 K, 34473 kPa): 962 ± 1.2 kg/m3; mass density (323.15 K, 34474 kPa): 962 ± 1.2 kg/m3; mass density (323.16 K, 603.67 kPa): 941 ± 1.1 kg/m3; mass density (323.16 K, 875.73 kPa): 941.2 ± 1.1 kg/m3; mass density (323.16 K, 892.76 kPa): 941.2 ± 1.1 kg/m3; mass density (323.16 K, 910.31 kPa): 941.3 ± 1.1 kg/m3; mass density (323.16 K, 929.42 kPa): 941.3 ± 1.1 kg/m3; mass density (323.16 K, 952.34 kPa): 941.3 ± 1.1 kg/m3; mass density (323.16 K, 1561.9 kPa): 941.8 ± 1.1 kg/m3; mass density (323.16 K, 1605.8 kPa): 941.7 ± 1.1 kg/m3; mass density (323.16 K, 1638 kPa): 941.7 ± 1.1 kg/m3; mass density (323.16 K, 1659.1 kPa): 941.7 ± 1.1 kg/m3; mass density (323.16 K, 1674.9 kPa): 941.8 ± 1.1 kg/m3; mass density (323.16 K, 1688.1 kPa): 941.8 ± 1.1 kg/m3; mass density (323.16 K, 2395.8 kPa): 942.3 ± 1.1 kg/m3; mass density (323.16 K, 2562.1 kPa): 942.5 ± 1.2 kg/m3; mass density (323.16 K, 2571.5 kPa): 942.4 ± 1.1 kg/m3; mass density (323.16 K, 2579.5 kPa): 942.4 ± 1.1 kg/m3; mass density (323.16 K, 2587.6 kPa): 942.5 ± 1.2 kg/m3; mass density (323.16 K, 3525.4 kPa): 943 ± 1.2 kg/m3; mass density (323.16 K, 3596.1 kPa): 943.1 ± 1.2 kg/m3; mass density (323.16 K, 3609.1 kPa): 943.2 ± 1.2 kg/m3; mass density (323.16 K, 3622.8 kPa): 943.1 ± 1.2 kg/m3; mass density (323.16 K, 3638.9 kPa): 943.2 ± 1.2 kg/m3; mass density (323.16 K, 3652.2 kPa): 943.2 ± 1.2 kg/m3; mass density (323.16 K, 3663.5 kPa): 943.2 ± 1.2 kg/m3; mass density (323.16 K, 3682.5 kPa): 943.1 ± 1.2 kg/m3; mass density (323.16 K, 3696.6 kPa): 943.1 ± 1.2 kg/m3; mass density (323.16 K, 3864.6 kPa): 943.3 ± 1.2 kg/m3; mass density (323.16 K, 3879.5 kPa): 943.3 ± 1.2 kg/m3; mass density (323.16 K, 3913.1 kPa): 943.3 ± 1.2 kg/m3; mass density (323.16 K, 3928.7 kPa): 943.4 ± 1.2 kg/m3; mass density (323.16 K, 3945.2 kPa): 943.3 ± 1.2 kg/m3; mass density (323.16 K, 3960.6 kPa): 943.3 ± 1.2 kg/m3; mass density (323.16 K, 3976.2 kPa): 943.4 ± 1.2 kg/m3; mass density (323.16 K, 3991.8 kPa): 943.3 ± 1.2 kg/m3; mass density (323.16 K, 4010.5 kPa): 943.3 ± 1.2 kg/m3; mass density (323.16 K, 4025.5 kPa): 943.3 ± 1.2 kg/m3; mass density (323.16 K, 4044.2 kPa): 943.5 ± 1.2 kg/m3; mass density (323.16 K, 4061 kPa): 943.5 ± 1.2 kg/m3; mass density (323.16 K, 4225.4 kPa): 943.5 ± 1.2 kg/m3; mass density (323.16 K, 4242.4 kPa): 943.6 ± 1.2 kg/m3; mass density (323.16 K, 4245.7 kPa): 943.5 ± 1.2 kg/m3; mass density (323.16 K, 4456.7 kPa): 943.7 ± 1.2 kg/m3; mass density (323.16 K, 4480.6 kPa): 943.7 ± 1.2 kg/m3; mass density (323.16 K, 4501.4 kPa): 943.6 ± 1.2 kg/m3; mass density (323.16 K, 4587.3 kPa): 943.7 ± 1.2 kg/m3; mass density (323.16 K, 4633.2 kPa): 943.7 ± 1.2 kg/m3; mass density (323.16 K, 4694.8 kPa): 943.8 ± 1.2 kg/m3; mass density (323.16 K, 4742.6 kPa): 943.9 ± 1.2 kg/m3
